# According to patent US8592421B2, “Cyclic bioisosters of purine system derivatives and a pharmaceutical composition based thereon” (priority 2003, dated 2013):
# Columns and labels:
# [1] = test system: Ca^2+-dependent isoform NOC; experiment: Morphine abstinence model: calcium-dependent NOC in liver; type: in vivo, rats Wistar; conditions: administration of morphine (FIG. 13)
# [2] = test system: synthase of nitrogen oxide (NOC); experiment: Morphine abstinence model: activity of synthase of nitrogen oxide (NOC), radiometric [3H]L-citrulline method; type: in vivo, rats Wistar; conditions: morphinized rats (FIG. 13)
# [3] = test system: Ca^2+-independent isoform NOC; experiment: Morphine abstinence model: calcium-independent NOC in liver; type: in vivo, rats Wistar; conditions: administration of morphine (FIG. 13)
# [4] = Morphine abstinence model: thymus condition (mass, nitrites); type: in vivo, rats; conditions: Administration of morphine; control 230 ± 14
# From the text: The spectrometric method is based the reaction of nitrites with the Griss reagent (a mixture of 2% solution of sulfanilamide and 0.2% N-(1-naphthyl)ethylene diamine. At the first step the nitrite reacts with sulfanilamide with formation of diazonium salt, and then with the second component to form azo dye with an adsorption maximum at 540 nm. For reduction of nitrates into nitrites, a fermentative method was used with bacterial reductase nitrate (Grisham M. B. et al., 1995). The samples of plasma and supernathant of the liver deproteinizated at 100° C. for 5 minutes incubated for 30 minutes at 37° C. in 50.0 mM of HEPES pH 7.4 in the presence of 0.2 unit/ml of Aspergillus reductase nitrate, 5.0 mkM of FAD and 0.1 mM of NAD-Ph. At the end of the reaction lactate dehydrogenase and pyruvate were added for isolation of NAD-Ph interfering with the Griss reaction. Then the Griss reagent was added and after 10-minute incubation the light absorption of the samples was measured at 540 nm. To amount of NOX^− was calculated using sodium nitrate as a standard.
# The effect of the compounds according to the invention on the condition of the thymus of the rats was also investigated: a control group, an experimental group of morphinized animals and an experimental group of animals were first morphinized and then injected with the compounds according to the invention. The experiment was carried out similarly to that described above.
smiles,measurement,setting,value
"CN1CC[C@]23c4c5ccc(O)c4O[C@H]2[C@@H](O)C=C[C@H]3[C@H]1C5 [Morphine, morphine, reference compound]",activity of the calcium-dependent form NOC in the liver,[1],rise of activity
same,total NOC activity in the liver compared to the control,[2],did not change
same,activity of the calcium-independent form NOC in the liver,[3],decrease of activity
same,Thymus mass,[4],145 ± 9 mg
